Data set [1] can be described thus: Selectivity index, ratio of CC50 for mock-infected human MT4 cells to EC50 for HIV1 3B expressing wild type reverse transcriptase. The data set is classed as toxicity, cell-based. The settings on record: read-out: Ratio CC50/EC50.
The test system of data set [2] is Human immunodeficiency virus 1. Put plainly: Antiviral activity against HIV1 3B expressing wild type reverse transcriptase infected in human MT4 cells assessed as protection against virus-induced cytopathic effect after 5 days by MTT assay. The data set is classed as functional, cell-based. The settings on record: Human immunodeficiency virus 1, 3B, MT4, 120 h. A general note: Damage to the host cells serves as the signal in cytopathic effect assays.

Data set [3] can be described thus: Cytotoxicity against mock-infected human MT4 cells assessed as reduction in cell viability after 5 days by MTT assay. The format is toxicity, cell-based. On the technique in general: Tetrazolium assays rely on reduction of a dye to a coloured formazan, in cell work by metabolically active cells.
A short description of data set [4]: Solubility of the compound. The format is physicochemical.
A short description of data set [5]: Selectivity index, ratio of CC50 for mock-infected human MT4 cells to EC50 for HIV1 RES056 expressing reverse transcriptase K103N/Y181C double mutant. The format is toxicity, cell-based. The settings on record: read-out: Ratio CC50/EC50.
For data set [6], the system named is Human immunodeficiency virus 1. Put plainly: Antiviral activity against HIV1 RES056 expressing reverse transcriptase K103N/Y181C double mutant infected in human MT4 cells assessed as protection against virus-induced cytopathic effect after 5 days by MTT assay. The data set is classed as functional, cell-based. The settings on record: Human immunodeficiency virus 1, RES056, MT4, 120 h.

Data set [7] concerns the target Human immunodeficiency virus type 1 reverse transcriptase (Human immunodeficiency virus 1, UniProt Q72547). Nature of the data set: Inhibition of recombinant wild type HIV1 p66/p51 using poly(rA) template/oligo(dT)16 primer after 40 mins by PicoGreen-based spectrofluorometric method.

As to `Cc1cc(C)c(Oc2cc(Cl)nc(NC3CCN(Cc4ccc(S(C)(=O)=O)cc4)CC3)c2)c(C)c1`, the values for the selectivity ratio in data set [1] and in data set [5] were 46 and under 1, respectively. Also, the EC50 in data set [2] was 25 nM; in data set [6], over 1100 nM. For the same molecule, the CC50 at 120 h in data set [3] is 1200 nM. In addition, the solubility in data set [4] is over 49 µM. In addition, the IC50 in data set [7] was determined as 160 nM.

For orientation: EC50 means the concentration that produces a half-maximal response. One may read the CC50 as the concentration giving 50% cytotoxicity. In general, solubility refers to the dissolved amount per volume that the medium holds. A high value points to much dissolved substance. The term IC50 denotes the concentration that inhibits the measured activity by half.

The values above are taken from ChEMBL document CHEMBL3860023, “Structural optimization of pyridine-type DAPY derivatives to exploit the tolerant regions of the NNRTI binding pocket” (Eur J Med Chem, 2016).
